{"source": "patent US20080107603A1", "about": "“Neuroprotectant methods, compositions, and screening methods thereof” (priority 2002, published 2008)", "key": {"peroxynitrite": {"tested_on": "peroxynitrite", "experiment": "Intracellular peroxynitrite formation (DHR123 fluorescence)", "format": "cell-based, Rat", "settings": "25 μM Aβ25-35, 36 h; L-ergothioneine present in the media", "protocol": "To monitor intracellular formation of peroxynitrite, the fluorescent probe DHR123 was used. DHR123 is lipophilic and readily diffuses across cell membranes. Upon oxidation of DHR to fluorescent rhodamine, one of the two covalent amino groups tautomerizes to a changed imino, effectively trapping rhodamine within cells. DHR is not oxidized by nitric oxide (NO) but peroxynitrite effectively oxidizes it. After treatment with Aβ25-35 (25 μM) for 36 h in the presence or absence of L-ergothioneine, cells (1×10^4 cells/1 ml in 4-well chamber slide) were rinsed with saline A, and 10 μM DHR in saline A containing 5% fetal bovine serum was loaded. After 20 min incubation at 37 C, cells were examined under a confocal microscope equipped with an argon laser (488 nm; 200 mW). To quntitate peroxynitrite generation in response to Aβ25-35, total peroxynitrite production (basal+incease) was divided by basal peroxynitrite generation. Changes in fluorescence intensity are expressed as a percentage of the control."}, "[1]": {"settings": "Rat; cited from earlier work"}, "[2]": {"settings": "Cat; cited from earlier work"}, "[3]": {"settings": "Dog; cited from earlier work"}, "[4]": {"tested_on": "tyrosine hydroxylase positive cells (TH+ cells) in the substantia nigra", "experiment": "6-OHDA lesion rat model, TH+ cells in the substantia nigra", "format": "in vivo, Sprague-Dawley rats", "protocol": "Male Sprague-Dawley rats with starting weights 225±25 g, were housed in groups of 3 with free access to food and water, under controlled temperature (21° C.±1° C.) and a 12 hour light/dark cycle (light on 07.00 hrs). All scientific procedures were carried out with the approval of the Home Office, U.K. Rats were administered, by gavage, 70 mg/kg of ergothioneine or vehicle (sterile distilled water) daily for 4 days (n=6 per group). On the 4th day, 1 hr after L-ergothioneine or vehicle administration, rats were anaesthetized with small animal Immobilon® (0.04 ml/rat, i.m.), and 6-OHDA (5 μg dissolved in 4 μl of 0.1% ascorbic acid/saline solution) was injected onto median forebrain bundle (stereotactic co-ordinates: 2.2 mm anterior, +1.5 lateral from bregma and −7.9 ventral to dura with ear bars 5 mm below incisor bars (Datla et al. (2001) Neuroreport 12:3871, which reference is herein specifically incorporated by reference in its entirety). One week after 6-OHDA lesioning, rats were killed by cervical dislocation and the brains were dissected out immediately. A coronal section was made at the level of hypothalamus and fore brain, and hind brain parts were separated. Hind-brain was fixed for 7 days in 4% paraformaldehyde, then cryo-protected with 30% sucrose solution for 2-3 days and used for tyrosine hydroxylase (TH) immuno-staining as described by Datla et al. (2001) supra. Briefly, TH was immuno-stained by incubating the 20 μm fixed coronal free-floating sections with polyclonal rabbit anti-TH (1:3000, Chemicon, U.K.) followed by biotinylated anti-rabbit IgG and avidin/biotin complex (Vector Lab, U.K.). The TH immuno-complex was then visualized by diaminobenzidine (DAB) and H2O2. Images of TH positive cells (TH+ cells) were captured by a Xillix CCD digital camera and counted automatically (Image Proplus, Datacell, U.K.). The number of TH+ cells in the substantia nigra on the control side was compared with the lesioned side by averaging the cells in 5 different levels (Datla et al. (2001) supra). […]"}, "NF-κB": {"tested_on": "NF-κB", "experiment": "EMSA, Aβ25-35-induced NF-κB DNA binding activity", "format": "cell-based, Rat", "settings": "25 μM Aβ25-35 for 1 h; EGT pretreatment (0.5 mM, 1 mM)", "protocol": "To explore the molecular mechanisms underlying the protective effect of L-ergothioneine against Aβ25-35-induced nitrosative cell death, the activation of NF-κB was assessed by EMSA using an oligonucleotide containing a consensus κB binding element. After treatment with 25 μM Aβ25-35 for 1 h in the absence or presence of L-ergothioneine, PC12 cells (1×10^7 cells/7 ml in 100φ dish) were washed with PBS, centrifuged, and resuspended in ice-cold isotonic buffer A [10 mM HEPES, pH 7.9, 1.5 mM MgCl2, 10 mM KCl, 0.5 mM dithiothreitol (DTT) and 0.2 mM phenylmethylsulfonyl fluoride (PMSF)]. Following incubation in an ice bath for 10 min, cells were centrifuged again and resuspended in ice-cold buffer C containing 20 mM HEPES (pH 7.9), 20% glycerol, 420 mM […], 1.5 mM MgCl2, 0.2 mM EDTA, 0.5 mM DTT and 0.2 mM PMSF followed by incubation at 0° C. for 20 min. After vortex-mixing, the resulting suspension was centrifuged, and the supernatant was stored at −70° C. for the NF-κB DNA binding assay. The protein concentration was determined by using the BCA protein assay kit.\nSynthetic double strand oligonucleotide containing the NF-κB binding domain was labeled with [γ-^32P]ATP using T4 polynucleotide kinase and separated from unincorporated [γ-^32P]ATP by gel filtration using a nick spin column (Phamacia Biotech, Bjorkgatan, Sweden). […]"}, "[5]": {"settings": "Guinea Pig; cited from earlier work"}, "PC12 cells": {"tested_on": "PC12 cells", "experiment": "TUNEL, Aβ25-35-induced apoptosis", "format": "cell-based, Rat", "settings": "25 μM Aβ25-35, 36 h; EGT at 0.5 mM or 1 mM", "protocol": "The commercially available in situ death detection kit (Boehringer Mannheim product, Manheim, Germany) was utilized to detect DNA fragmentation. The PC12 cells (5×10^5 cells/1.5 ml in chamber slide) were fixed for 30 min in 10% neutral buffered-formalin solution at room temperature. Endogenous peroxidase was inactivated by incubation with 0.3% (v/v) hydrogen peroxide in methanol for 30 min at room temperature and further incubated in a permeabilizing solution (0.1% sodium citrate and 0.1% Triton X-100) for 2 min at 4° C. The cells were labeled by incubation with the TUNEL reaction mixture for 60 min at 37° C. followed by labeling with peroxidase-conjugated anti-fluorescein anti-goat antibody (Fab fragment) for additional 30 min. After staining with diaminobenzidine for 10 min, cells were rinsed with phosphate-buffered saline (PBS) and mounted with 50% glycerol."}, "[6]": {"settings": "Fowl; cited from earlier work"}}, "note": "Where two headings read alike, the source gives them in different places.", "data": [{"smiles": "C[N+](C)(C)[C@@H](Cc1c[nH]c(=S)[nH]1)C(=O)[O-]", "note": "[L-ergothioneine, 2-mercaptohistidine trimethylbetaine]", "values": [{"measurement": "intracellular peroxynitrite formation", "setting": "peroxynitrite", "result": "significantly reduced"}, {"measurement": "L-Ergothioneine Concentration (mg/100 ml blood)", "setting": "[1]", "result": "1-6 mg/100 ml blood"}, {"measurement": "L-Ergothioneine Concentration (mg/100 ml blood)", "setting": "[2]", "result": "0.5-2 mg/100 ml blood"}, {"measurement": "L-Ergothioneine Concentration (mg/100 ml blood)", "setting": "[3]", "result": "3-6 mg/100 ml blood"}, {"measurement": "improvement in terms of neuroprotection over the controls", "setting": "[4]; L-ergothioneine vs vehicle treated group", "result": "approximately 20%"}, {"measurement": "number of TH+ cells on the control side of the brain", "setting": "[4]; control (unlesioned) side, vs vehicle group", "result": "comparable"}, {"measurement": "reduction in the number of TH+ cells", "setting": "[4]; lesioned vs control side, 70 mg/kg by gavage, one week after 6-OHDA lesioning", "result": 46, "unit": "%"}, {"measurement": "NF-κB DNA binding", "setting": "NF-κB", "result": "inhibited"}, {"measurement": "L-Ergothioneine Concentration (mg/100 ml blood)", "setting": "[5]", "result": "1-4 mg/100 ml blood"}, {"measurement": "proportion of TUNEL-positive cells", "setting": "PC12 cells", "result": "lowered the proportion of TUNEL-positive cells"}, {"measurement": "L-Ergothioneine Concentration (mg/100 ml blood)", "setting": "[6]", "result": "2-10 mg/100 ml blood"}]}]}
